These are literature values, as cited in PMC7953028 (Journal of Pesticide Science, 2021).

Molecules are shown by their SMILES.

The target of one data set is DmMet/DmTai complex (Drosophila melanogaster, UniProt O44118).
Chain of DmMet/DmTai complex (O44118 1-716): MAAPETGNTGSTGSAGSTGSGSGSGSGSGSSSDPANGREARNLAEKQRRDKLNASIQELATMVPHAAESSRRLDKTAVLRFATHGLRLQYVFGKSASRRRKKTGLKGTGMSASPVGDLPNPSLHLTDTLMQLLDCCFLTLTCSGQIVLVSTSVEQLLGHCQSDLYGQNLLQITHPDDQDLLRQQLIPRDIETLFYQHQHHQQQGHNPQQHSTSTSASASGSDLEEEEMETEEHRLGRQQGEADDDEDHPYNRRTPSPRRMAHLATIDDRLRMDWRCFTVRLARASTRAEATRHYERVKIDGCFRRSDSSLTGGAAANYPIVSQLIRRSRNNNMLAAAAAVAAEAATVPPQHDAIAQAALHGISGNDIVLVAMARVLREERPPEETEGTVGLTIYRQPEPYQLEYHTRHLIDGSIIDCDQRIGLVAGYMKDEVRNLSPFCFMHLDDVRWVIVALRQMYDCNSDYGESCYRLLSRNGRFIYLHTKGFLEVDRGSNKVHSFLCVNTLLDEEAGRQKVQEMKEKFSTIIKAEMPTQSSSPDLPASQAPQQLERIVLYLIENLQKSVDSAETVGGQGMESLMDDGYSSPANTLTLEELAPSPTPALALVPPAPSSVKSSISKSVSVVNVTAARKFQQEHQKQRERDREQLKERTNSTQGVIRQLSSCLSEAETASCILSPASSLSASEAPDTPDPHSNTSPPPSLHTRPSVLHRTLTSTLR
Chain of DmMet/DmTai complex (Q9VLD9 1-2026 partner): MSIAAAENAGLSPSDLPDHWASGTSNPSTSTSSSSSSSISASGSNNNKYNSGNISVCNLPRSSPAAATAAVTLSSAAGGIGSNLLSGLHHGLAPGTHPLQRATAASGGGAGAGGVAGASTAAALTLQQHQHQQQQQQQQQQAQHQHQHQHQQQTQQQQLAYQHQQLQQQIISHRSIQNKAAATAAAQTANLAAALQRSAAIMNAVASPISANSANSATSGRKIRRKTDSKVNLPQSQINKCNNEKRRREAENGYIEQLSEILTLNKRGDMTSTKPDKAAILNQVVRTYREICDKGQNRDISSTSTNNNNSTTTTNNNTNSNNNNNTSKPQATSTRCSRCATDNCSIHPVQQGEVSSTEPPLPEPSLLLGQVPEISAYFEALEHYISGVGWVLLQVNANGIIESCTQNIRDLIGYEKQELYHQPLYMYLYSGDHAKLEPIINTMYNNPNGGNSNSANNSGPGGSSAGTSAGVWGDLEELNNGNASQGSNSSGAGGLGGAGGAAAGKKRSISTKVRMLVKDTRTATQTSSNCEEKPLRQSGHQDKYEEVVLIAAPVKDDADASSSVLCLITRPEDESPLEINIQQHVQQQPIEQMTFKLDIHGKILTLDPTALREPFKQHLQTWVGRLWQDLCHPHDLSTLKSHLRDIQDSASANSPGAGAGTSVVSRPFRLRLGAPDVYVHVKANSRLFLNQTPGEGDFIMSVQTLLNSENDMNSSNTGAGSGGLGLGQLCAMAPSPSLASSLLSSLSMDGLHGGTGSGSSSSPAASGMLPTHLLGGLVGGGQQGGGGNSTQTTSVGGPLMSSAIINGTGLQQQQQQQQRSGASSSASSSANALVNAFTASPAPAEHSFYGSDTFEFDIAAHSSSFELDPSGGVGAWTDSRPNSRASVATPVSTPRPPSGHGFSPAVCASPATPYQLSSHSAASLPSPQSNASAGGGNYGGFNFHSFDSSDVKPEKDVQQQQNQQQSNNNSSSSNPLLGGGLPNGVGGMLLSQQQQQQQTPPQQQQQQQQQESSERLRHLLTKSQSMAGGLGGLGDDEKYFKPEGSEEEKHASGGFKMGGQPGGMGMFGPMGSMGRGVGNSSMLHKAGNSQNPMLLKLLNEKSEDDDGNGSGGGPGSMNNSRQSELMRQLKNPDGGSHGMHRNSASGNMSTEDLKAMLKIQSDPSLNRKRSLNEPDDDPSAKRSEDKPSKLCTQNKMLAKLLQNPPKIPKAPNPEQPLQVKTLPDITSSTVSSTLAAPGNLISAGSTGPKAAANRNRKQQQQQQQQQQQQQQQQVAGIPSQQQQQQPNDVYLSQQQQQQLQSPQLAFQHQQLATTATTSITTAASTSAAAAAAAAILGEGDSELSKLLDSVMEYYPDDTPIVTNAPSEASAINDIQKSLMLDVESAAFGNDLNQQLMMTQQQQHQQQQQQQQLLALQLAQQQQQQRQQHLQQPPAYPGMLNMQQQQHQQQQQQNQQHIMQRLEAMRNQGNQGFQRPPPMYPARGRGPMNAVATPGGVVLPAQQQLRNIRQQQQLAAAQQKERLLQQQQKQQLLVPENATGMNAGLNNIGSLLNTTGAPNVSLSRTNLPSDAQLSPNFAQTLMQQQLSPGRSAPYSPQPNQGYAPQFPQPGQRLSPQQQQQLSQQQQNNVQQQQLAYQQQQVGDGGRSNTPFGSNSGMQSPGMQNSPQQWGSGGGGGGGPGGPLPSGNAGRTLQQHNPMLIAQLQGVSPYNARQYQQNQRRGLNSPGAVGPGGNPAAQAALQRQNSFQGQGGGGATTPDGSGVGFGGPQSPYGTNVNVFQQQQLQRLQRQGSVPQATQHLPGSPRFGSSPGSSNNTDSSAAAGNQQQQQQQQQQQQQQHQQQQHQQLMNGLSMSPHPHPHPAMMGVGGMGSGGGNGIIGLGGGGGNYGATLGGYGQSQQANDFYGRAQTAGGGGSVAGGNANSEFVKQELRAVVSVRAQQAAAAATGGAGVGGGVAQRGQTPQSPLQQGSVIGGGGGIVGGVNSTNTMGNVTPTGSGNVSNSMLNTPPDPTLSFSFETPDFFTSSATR

With `c1ccc(Oc2ccc(OCCOc3nccs3)cc2)cc1` [Compound 1, 2-[2-(4-phenoxyphenoxy)ethoxy]thiazole], the “activity in reporter system relative to natural JHs” value at DmMet/DmTai complex was “outperformed natural JHs”.

`COC(C)(C)CCC[C@H](C)C/C=C/C(C)=C/C(=O)OC(C)C` (racemic) [methoprene]: the log partition coefficient (log P) (in general, a log measure of how a compound divides between an organic and an aqueous phase) was 5.00.

For the compound `C(#Cc1ccccn1)COc1ccc(Oc2ccccc2)cc1` [Compound 2, 2-[3-(4-phenoxyphenoxy)-1-propyn-1-yl)pyridine], at DmMet/DmTai complex, the “activity in reporter system relative to natural JHs” value is “outperformed natural JHs”.
